{"source": "patent US10294230B2", "about": "“3,3-difluoropiperidine carbamate heterocyclic compounds as NR2B NMDA receptor antagonists” (Rugen Holdings (Cayman) Limited, priority 2015, dated 2019)", "test_system": "KCl-induced cortical spreading depression", "assay": "Cortical Spreading Depression (CSD), aura phase of migraine model", "assay_type": "in vivo", "settings": "rats", "experimental": "The cortical spreading depression model is utilized to investigate whether treatment with compounds of the present invention affect electrophysiological and hemodynamic events in a rat model of migraine.\nRats were anesthetized with 5% isoflurane (in 70% N2O and 30% O2; flow 300 ml/min) and placed in a stereotactic frame. […] The rectal temperature was maintained at 37.0±1.0° C. with a homeothermic blanket system. The skin was opened by a medial incision and retracted laterally. Three burr holes were drilled under saline cooling over the right hemisphere at the following coordinates (mm from bregma): (1) posterior 4.5, lateral, 2.0 (occipital cortex): KCl application site; (2) posterior 0.5, lateral 2.0 (parietal cortex): LDF recording site; (3) anterior 2, lateral 2 (frontal cortex): DC potential recording site. A laser-Doppler flow probe (Oxyflow, Oxford Optronics, UK) to monitor CBF and an invasive Ag/AgCl electrode for measuring direct current (DC) potential shifts were placed in the parietal and frontal cortex burr holes on the intact dura and in the cortex, respectively. The laser-Doppler flow probe was positioned in an area free of large pial and dural vessels to minimize a large-vessel contribution to the signal. For the DC-potential measurement, a reference electrode was fixed in the neck. Dura overlying the occipital cortex was gently removed and care was taken to avoid bleeding. After surgical preparation, the cortex was allowed to recover for 15 minutes under saline irrigation. A cotton ball (2 mm diameter) soaked with 1M KCl was placed on the pial surface and kept moist by placing 5 μl of KCl solution every 15 minutes. Test compound or vehicle was administered ten (10) minutes prior to CSD initiation. […] The number of KCl-induced CSDs was counted for 2 hours. The CBF and DC-potentials were monitored continuously starting from 5 minutes before KCl exposure.\nTest compound E1-1.2 was administered as a mesylate salt (mpk based on molecular weight of the mesylate salt).\nThe data was collected in Windaq acquisition software (Dataq Instruments, USA) at 20 kHz. The raw data was analyzed in Clampfit program (Axon Instruments, USA). The signals were low pass filtered (cut off range 5-10000 Hz) that CSD episodes in DC and CBF could be confirmed. The following parameters were analyzed: i) the number, duration and amplitude of DC-potentials, and ii) the number and amplitude of CBF events.\nDoses were given as milligram per kilogram (mpk). […] Bars represent mean±Standard Error of Mean (SEM), and differences were considered to be statistically significant at the P<0.05 level (n=8, * different from vehicle group). Statistical analysis was performed using StatsDirect statistical software. Differences between groups were analyzed by using 1-way ANOVA and Dunnett's post hoc test.", "key": {"[1]": {"settings": "E1-1.2 at various doses, MK-801 1.25 mg/kg"}}, "data": [{"smiles": "Cc1ccc(COC(=O)N2CC[C@H](CNc3nccn4cnnc34)C(F)(F)C2)cc1", "note": "[Compound E1-1.2, (+)-R-4-methylbenzyl 4-(([1,2,4]triazolo[4,3-a]pyrazin-8-ylamino)methyl)-3,3-difluoropiperidine-1-carboxylate]", "values": [{"measurement": "magnitude of CBF vs vehicle", "result": "unchanged"}, {"measurement": "number of DC potentials vs vehicle", "setting": "3 mpk, 10 mpk and 30 mpk, mesylate salt", "result": "significantly decreased"}, {"measurement": "number of CBF events vs vehicle", "setting": "E1-1.2 at 10 mg/kg, MK-801 at 1.25 mg/kg", "result": "decreased"}, {"measurement": "amplitude of DC potentials vs vehicle", "setting": "[1]", "result": "not statistically different"}, {"measurement": "duration of DC potentials vs vehicle", "setting": "[1]", "result": "not statistically different"}]}]}
